Calls of active or inactive are those of the source. The rule behind the calls is not given here.
Key:
[1] = tested on: B16; assay: Inhibition of melanin production in mouse B16 cells at 100 uM; assay type: functional
[2] = target: T1, Tyrosinase (Agaricus bisporus, UniProt O42713)
T1 sequence (O42713 whole entry): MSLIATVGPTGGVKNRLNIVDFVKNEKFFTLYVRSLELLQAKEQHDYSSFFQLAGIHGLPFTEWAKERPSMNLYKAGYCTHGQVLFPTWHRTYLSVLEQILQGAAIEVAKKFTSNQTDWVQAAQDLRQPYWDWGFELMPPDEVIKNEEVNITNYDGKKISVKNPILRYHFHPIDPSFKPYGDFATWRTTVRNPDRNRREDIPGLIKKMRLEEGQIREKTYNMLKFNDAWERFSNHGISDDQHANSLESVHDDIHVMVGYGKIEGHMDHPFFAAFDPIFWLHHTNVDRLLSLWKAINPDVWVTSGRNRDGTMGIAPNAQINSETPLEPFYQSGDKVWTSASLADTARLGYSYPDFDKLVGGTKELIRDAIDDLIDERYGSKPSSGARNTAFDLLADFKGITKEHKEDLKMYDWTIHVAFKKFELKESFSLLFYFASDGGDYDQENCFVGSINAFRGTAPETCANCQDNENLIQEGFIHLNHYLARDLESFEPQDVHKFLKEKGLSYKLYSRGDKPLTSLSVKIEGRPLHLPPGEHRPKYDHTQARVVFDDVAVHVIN
Description: Inhibition of mushroom tyrosinase

[3] = tested on: B16; assay: Cytotoxicity against mouse B16 cells at 100 uM; assay type: functional, cell-based
[4] = tested on: B16; assay: Inhibition of melanin production in mouse B16 cells at 50 uM; assay type: functional

Structure (SMILES) | IC50 [2] | Activity [1] | Activity [3] | inhibition at 100 µM [1] | inhibition at 50 µM [4]
O=C(NO)Nc1ccc(NC(=O)NO)cc1 | 27 µM | – | inactive | 66% | –
OC[C@H]1O[C@@H](Oc2ccc(O)cc2)[C@H](O)[C@@H](O)[C@@H]1O [ARBUTIN] | – | – | – | 43.8% | –
CCCCOc1ccc(NC(=O)NO)cc1 | > 1000 µM | inactive | inactive | – | –
COc1ccc(NC(=O)NO)cc1 | 32 µM | inactive | inactive | – | –
O=C(NO)Nc1ccc(O)cc1 | 41 µM | – | inactive | 19% | –
O=C(NO)Nc1ccc(OCc2ccccc2)cc1 | 6.3 µM | inactive | inactive | – | –
CN(O)C(=O)Nc1ccc([N+](=O)[O-])cc1 | 770 µM | – | inactive | 82% | –
O=C(NO)Nc1ccc([N+](=O)[O-])cc1 | 2.6 µM | – | inactive | 86% | –
CN(C(=O)NO)c1ccccc1 | 16 µM | – | inactive | – | –
CN(O)C(=O)N(C)c1ccccc1 | > 1000 µM | – | inactive | – | –
CONC(=S)Nc1ccc2ccccc2c1 | 26 µM | – | inactive | 85% | –
CONC(=S)Nc1ccc([N+](=O)[O-])cc1 | > 1000 µM | – | inactive | – | 75.5%
CN(O)C(=O)Nc1ccc(Br)cc1 | > 1000 µM | inactive | inactive | – | –
COc1ccc(NC(=O)NO)c(OC)c1 | > 1000 µM | inactive | inactive | – | –
O=C(NO)Nc1ccc(Br)cc1 | 2.7 µM | – | inactive | 75.5% | –
Oc1ccc(O)cc1 [HYDROQUINONE] | 37 µM | – | – | – | –
O=C(NO)Nc1ccc(C(F)(F)F)cc1 | 4.3 µM | – | inactive | 79.3% | –

Second part, led by results:

IC50 [2] | Structure (SMILES) | Activity [1] | Activity [3] | inhibition at 100 µM [1] | inhibition at 50 µM [4]
> 1000 µM | CN(O)C(=O)Nc1ccccc1 | inactive | inactive | – | –
> 1000 µM | ONC(=S)Nc1ccccc1 | inactive | inactive | – | –
0.29 µM | O=C(NO)Nc1ccccc1 | – | inactive | 78% | –
70 µM | CC(C)(C)[Si](C)(C)ONC(=O)Nc1ccccc1 | inactive | inactive | – | –
> 1000 µM | CONC(=O)Nc1ccccc1 | inactive | inactive | – | –
> 1000 µM | NC(=O)Nc1ccccc1 | inactive | – | – | –
> 1000 µM | CONC(=O)N(C)c1ccccc1 | – | inactive | – | –
170 µM | CC(=O)N(O)C(=O)Nc1ccccc1 | – | inactive | – | –

From ChEMBL document CHEMBL1145572, “Analogues of N-hydroxy-N'-phenylthiourea and N-hydroxy-N'-phenylurea as inhibitors of tyrosinase and melanin formation” (Bioorg Med Chem Lett, 2008)
